Reference: ChEMBL document CHEMBL4765425, “Synthesis of 1,3,4-oxadiazole derivatives with anticonvulsant activity and their binding to the GABA receptor” (Eur J Med Chem, 2020)
Activity calls are given as the source filed them. The rule behind the calls is not given here.

Key:
Mus musculus [1] = assay: Anticonvulsant activity in ip dosed Kunming mouse assessed as reduction in MES-induced seizure measured after 30 mins; format: functional; details: 0.5 h
[2] = Protection index, ratio of TD50 for neurotoxicity in ip dosed Kunming mouse to ED50 for anticonvulsant activity in ip dosed MES-induced Kunming mouse; format: toxicity, organism-based; details: in vivo, read-out: TI
[3] = Neurotoxicity in Kunming mouse at 30 mg/kg, ip measured after 30 mins by rotarod test; format: toxicity, organism-based; details: in vivo, 0.5 h
Mus musculus [4] = assay: Anticonvulsant activity in Kunming mouse assessed as reduction in MES-induced seizure at 30 mg/kg, ip measured after 30 mins; format: functional, organism-based
Mus musculus [5] = assay: Anticonvulsant activity in Kunming mouse assessed as reduction in MES-induced seizure at 100 mg/kg, ip measured after 30 mins; format: functional, organism-based
[6] = Protection index, ratio of TD50 for neurotoxicity in ip dosed Kunming mouse to ED50 for anticonvulsant activity in ip dosed ScPTZ-induced Kunming mouse; format: toxicity, organism-based; details: in vivo, read-out: TI
Rattus norvegicus [7] = assay: Anxiolytic activity in Wistar rat assessed as increase in time spent in open sided arms at 1 mg/kg, ip measured for 5 mins in presence of GABAA receptor antagonist by elevated plus maze test; format: functional, organism-based
[8] = Displacement of [3H]flunitrazepam from GABA-A receptor benzodiazepine site in mouse cerebellum synaptosomal membrane; format: subcellular, Synaptosome
Mus musculus [9] = assay: Anticonvulsant activity in ip dosed Kunming mouse assessed as reduction in ScPTZ-induced seizure measured after 30 mins; format: functional; details: 0.5 h
Rattus norvegicus [10] = assay: Effect on GABA level in Wistar rat brain assessed as increase in GABA level at 30 mg/kg, ip measured after 7 days; format: functional, organism-based; details: time 7.0 day
Rattus norvegicus [11] = assay: Effect on GABA level in Wistar rat brain assessed as increase in GABA level at 30 mg/kg, ip measured after 2 hrs; format: functional, organism-based
Rattus norvegicus [12] = assay: Anxiolytic activity in Wistar rat assessed as increase in time spent in open sided arms at 1 mg/kg, ip measured for 5 mins by elevated plus maze test; format: functional, organism-based
[13] = Neurotoxicity in ip dosed Kunming mouse measured after 30 mins by rotarod test; format: toxicity, organism-based; details: in vivo
[14] = Neurotoxicity in Kunming mouse at 100 mg/kg, ip measured after 30 mins by rotarod test; format: toxicity, organism-based; details: in vivo, 0.5 h
[15] = Neurotoxicity in Kunming mouse at 300 mg/kg, ip measured after 30 mins by rotarod test; format: toxicity, organism-based; details: in vivo, 0.5 h
Mus musculus [16] = assay: Anticonvulsant activity in Kunming mouse assessed as reduction in ScPTZ-induced seizure at 100 mg/kg, ip measured after 30 mins; format: functional, organism-based
Mus musculus [17] = assay: Anticonvulsant activity in Kunming mouse assessed as reduction in ScPTZ-induced seizure at 30 mg/kg, ip measured after 30 mins; format: functional, organism-based

IC50 [8] [nM]	Compound	ED50 (Mus musculus [1]) [mg/kg]	selectivity ratio [2]	Activity [3]	Activity (Mus musculus [4])	Activity (Mus musculus [5])	selectivity ratio [6]	Activity (Rattus norvegicus [7])	ED50 (Mus musculus [9]) [mg/kg]	Activity (Rattus norvegicus [10])	Activity (Rattus norvegicus [11])	Activity (Rattus norvegicus [12])	TD50 at 0.5 h [13] [mg/kg]	Activity [14]	Activity [15]	Activity (Mus musculus [16])	Activity (Mus musculus [17])
	NC(=O)N1c2ccccc2C=Cc2ccccc21 [CARBAMAZEPINE]	11.8	6.4	Non-Toxic	Active												
110	CCCCCSc1nnc(COc2ccc3c(c2)CCC(=O)N3)o1	8.9	64.6		Active	Active	56.4	inactive	10.2	Active	Active	Active	575	Non-Toxic	Non-Toxic	Active	Active
